Data set [1] deals with Epidermal growth factor receptor (Homo sapiens, UniProt P00533). Briefly: Inhibition of human N-terminal GST-tagged EGFR (669 to 1210 residues) expressed in baculovirus infected Sf9 insect cells using TK as substrate preincubated for 30 mins followed by substrate addition and measured after 25 mins by HTRF assay. A general note: Time-resolved FRET reads energy transfer from a long-lived donor to a nearby acceptor.

A short description of data set [2]: Apparent permeability across basolateral side to apical side in human Caco-2 cells at 5 uM after 2 hrs by transwell assay. The data set is classed as ADME, cell-based. Particulars: read-out: permeability.
The nature of data set [3]: Intrinsic clearance in mouse liver microsomes at 1 uM measured up to 60 mins by LC-MS analysis. The data set is classed as ADME, Microsome. Particulars: read-out: CLH. (In general: Microsomes from liver hold many membrane-bound enzymes, among them those of drug oxidation.)
A short description of data set [4]: Apparent permeability across apical side to basolateral side in human Caco-2 cells at 5 uM after 2 hrs by transwell assay. The data set is classed as ADME, cell-based. The settings on record: read-out: permeability.
The nature of data set [5]: cells. In kind it is cell-based. Particulars: Homo sapiens, NCI-H1781, 96 h.
Description: Inhibition of HER2-G776delinsVC mutant (unknown origin) expressed in human H1781 cells assessed as reduction in HER2 induced cell viability after 96 hrs by CellTiter-Glo assay
The nature of data set [6]: Inhibition of C-terminal His6-tagged HER2-A775_G776insYVMA mutant (703 to 1029 residues) (unknown origin) expressed in Sf9 insect cells using TK as substrate measured up to 2 to 40 mins by fluorescence assay. On the set-up: species or system Homo sapiens.
A short description of data set [7]: Ratio of apparent permeability across basolateral to apical over apical to basolateral side in human Caco2 cells at 5 uM after 2 hrs by transwell assay. The settings on record: Caco-2. In kind it is ADME, cell-based.
The nature of data set [8]: Kinetic solubility of compound in HEPES buffer a pH 7.4 at 500 uM after 90 mins. In kind it is physicochemical. Particulars: read-out: Kinetic_solubility.
A short description of data set [9]: Inhibition of C-terminal His6-tagged HER2-A775_G776insYVMA mutant (703 to 1029 residues) (unknown origin) expressed in Sf9 insect cells assessed as Kinact using TK as substrate measured up to 2 to 40 mins by fluorescence assay. The settings on record: Homo sapiens, time min 2-40.
Data set [10] is described as follows: Stability of compound in human plasma assessed as parent compound remaining at 5 uM measured for 1 hr by LC-MS analysis. The data set is classed as ADME, cell-free. Particulars: read-out: Stabilty.
Data set [11] in a line: Stability of compound in mouse plasma assessed as parent compound remaining at 5 uM measured for 1 hr by LC-MS analysis. In kind it is ADME, cell-free. Particulars: read-out: Stabilty.
Data set [12] has as its target T1, Receptor tyrosine-protein kinase erbB-2 (Homo sapiens, UniProt P04626). Briefly: Inhibition of HER2 in human H1781 cells assessed as reduction in HER2 phosphorylation at Y1221/1222 residues at 100 to 500 nM after 1 hrs by Western blot analysis. The data set is classed as cell-based. Particulars: dose nM 100-500, time 1.0 hrs. On the technique in general: A western blot detects proteins with antibodies after separation by electrophoresis.

For data set [13], the target named is Epidermal growth factor receptor (Homo sapiens, UniProt P00533, L858R). Briefly: Inhibition of human N-terminal GST-tagged EGFR L858R mutant (669 to 1210 residues) expressed in baculovirus infected Sf9 insect cells using TK as substrate preincubated for 30 mins followed by substrate addition and measured after 15 mins by HTRF assay.
A short description of data set [14]: Intrinsic clearance in human liver microsomes at 1 uM measured up to 50 mins by LC-MS analysis. The data set is classed as ADME, Microsome. The settings on record: read-out: CLH.
For data set [15], the target named is T1, Receptor tyrosine-protein kinase erbB-2. Kind of data set: Inhibition of C-terminal His6-tagged HER2 (703 to 1029 residues) (unknown origin) expressed in Sf9 insect cells using TK as substrate preincubated for 30 mins followed by substrate addition and measured after 60 mins in presence of XL665-labeled streptavidin by HTRF assay.
The target in data set [16] is Epidermal growth factor receptor (Homo sapiens, UniProt P00533, L858R/T790M). Briefly: Inhibition of human N-terminal GST-tagged EGFR L858R/T790M mutant (669 to 1210 residues) expressed in baculovirus infected Sf9 insect cells using TK as substrate preincubated for 30 mins followed by substrate addition and measured after 20 mins by HTRF assay.
The target of data set [17] is T1, Receptor tyrosine-protein kinase erbB-2. Kind of data set: Inhibition of HER2 in human H1781 cells assessed as reduction in HER2 phosphorylation at Y1248 residues at 100 to 500 nM after 1 hrs by Western blot analysis. In kind it is cell-based. The settings on record: dose nM 100-500, time 1.0 hrs.
The nature of data set [18]: Inhibition of HER2-A775_G776insYVMA mutant (unknown origin) expressed in mouse BaF3 cells assessed as reduction in HER2 induced cell viability after 96 hrs by CellTiter-Glo assay. In kind it is cell-based. The settings on record: BaF3, 96 h.
A short description of data set [19]: Solubility of compound in aqueous buffer at pH 7.4 after 120 mins by turbidometric assay. In kind it is physicochemical.
In data set [20] the target is T1, Receptor tyrosine-protein kinase erbB-2. Kind of data set: Inhibition of HER2 in human H1781 cells assessed as reduction in HER2 phosphorylation at Y1248 residues after 1 hrs by Western blot analysis. In kind it is cell-based. The settings on record: dose nM 10-500, time 1.0 hrs.
For data set [21], the species on record is Homo sapiens. Briefly: Inhibition of S6 phosphorylation at T202/204 residues in human H1781 cells after 1 hrs by Western blot analysis. The data set is classed as cell-based. Particulars: dose nM 10-500, time 1.0 hrs.
The target of data set [22] is T1, Receptor tyrosine-protein kinase erbB-2. Kind of data set: Inhibition of HER2 in human H1781 cells assessed as reduction in HER2 phosphorylation at Y1221/1222 residues after 1 hrs by Western blot analysis. In kind it is cell-based. Particulars: dose nM 10-500, time 1.0 hrs.
The species entered for data set [23] is Homo sapiens. Briefly: Inhibition of MAPK phosphorylation at T202/204 residues in human H1781 cells after 1 hrs by Western blot analysis. Particulars: dose nM 10-500, time 1.0 hrs. In kind it is cell-based.
Data set [24] concerns the target Serine/threonine-protein kinase AKT (Homo sapiens) (UniProt P31751+Q9Y243+P31749). Briefly: Inhibition of AKT phosphorylation at S473 residues in human H1781 cells after 1 hrs by Western blot analysis. In kind it is cell-based. Particulars: dose nM 10-500, time 1.0 hrs.
Data set [25] can be described thus: Intrinsic clearance in mouse liver microsomes at 3 uM measured up to 60 mins by LC-MS analysis. In kind it is ADME, Microsome. Particulars: read-out: CLH.
Data set [26] can be described thus: Intrinsic clearance in human liver microsomes at 3 uM measured up to 50 mins by LC-MS analysis. The data set is classed as ADME, Microsome. The settings on record: read-out: CLH.

This is an account of results in ChEMBL document CHEMBL4665812, “Targeting Her2-insYVMA with Covalent Inhibitors-A Focused Compound Screening and Structure-Based Design Approach” (J Med Chem, 2020).

≈ marks a conversion by molar mass, not a printed value. Calls of active or inactive are those of the source. The rule behind the calls is not given here.

Sequence of Epidermal growth factor receptor (Homo sapiens, UniProt P00533, L858R) (P00533 25-1210 L858R limits assumed): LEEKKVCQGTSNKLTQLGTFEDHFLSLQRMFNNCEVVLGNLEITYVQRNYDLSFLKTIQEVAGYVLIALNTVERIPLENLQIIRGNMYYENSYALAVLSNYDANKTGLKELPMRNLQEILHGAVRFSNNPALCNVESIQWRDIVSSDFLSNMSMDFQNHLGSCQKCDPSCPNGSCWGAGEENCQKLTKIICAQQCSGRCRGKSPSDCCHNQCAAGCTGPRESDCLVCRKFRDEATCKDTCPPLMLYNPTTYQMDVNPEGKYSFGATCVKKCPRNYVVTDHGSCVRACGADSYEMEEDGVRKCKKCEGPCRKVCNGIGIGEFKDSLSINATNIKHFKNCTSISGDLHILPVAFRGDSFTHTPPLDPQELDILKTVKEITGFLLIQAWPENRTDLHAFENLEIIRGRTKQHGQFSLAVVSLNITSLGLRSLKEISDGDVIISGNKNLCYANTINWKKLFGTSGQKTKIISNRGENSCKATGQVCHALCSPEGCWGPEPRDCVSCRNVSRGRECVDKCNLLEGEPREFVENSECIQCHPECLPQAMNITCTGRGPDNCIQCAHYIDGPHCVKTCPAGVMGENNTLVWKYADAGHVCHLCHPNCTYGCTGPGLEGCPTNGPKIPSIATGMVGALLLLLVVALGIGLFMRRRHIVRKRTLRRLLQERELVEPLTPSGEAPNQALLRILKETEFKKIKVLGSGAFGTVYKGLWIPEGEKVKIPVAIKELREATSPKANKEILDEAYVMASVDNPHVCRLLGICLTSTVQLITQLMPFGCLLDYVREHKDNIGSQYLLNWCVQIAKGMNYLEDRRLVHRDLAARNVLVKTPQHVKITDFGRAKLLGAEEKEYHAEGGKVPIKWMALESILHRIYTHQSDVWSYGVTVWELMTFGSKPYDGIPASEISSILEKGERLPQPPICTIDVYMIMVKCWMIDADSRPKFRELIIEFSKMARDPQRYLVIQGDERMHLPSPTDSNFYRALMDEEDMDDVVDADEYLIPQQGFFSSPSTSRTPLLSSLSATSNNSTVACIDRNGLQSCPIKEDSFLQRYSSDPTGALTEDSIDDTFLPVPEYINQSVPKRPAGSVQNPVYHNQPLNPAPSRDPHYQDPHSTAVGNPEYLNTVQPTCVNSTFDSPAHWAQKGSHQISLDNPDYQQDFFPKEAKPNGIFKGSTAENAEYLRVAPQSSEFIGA
T1 sequence (P04626 whole entry): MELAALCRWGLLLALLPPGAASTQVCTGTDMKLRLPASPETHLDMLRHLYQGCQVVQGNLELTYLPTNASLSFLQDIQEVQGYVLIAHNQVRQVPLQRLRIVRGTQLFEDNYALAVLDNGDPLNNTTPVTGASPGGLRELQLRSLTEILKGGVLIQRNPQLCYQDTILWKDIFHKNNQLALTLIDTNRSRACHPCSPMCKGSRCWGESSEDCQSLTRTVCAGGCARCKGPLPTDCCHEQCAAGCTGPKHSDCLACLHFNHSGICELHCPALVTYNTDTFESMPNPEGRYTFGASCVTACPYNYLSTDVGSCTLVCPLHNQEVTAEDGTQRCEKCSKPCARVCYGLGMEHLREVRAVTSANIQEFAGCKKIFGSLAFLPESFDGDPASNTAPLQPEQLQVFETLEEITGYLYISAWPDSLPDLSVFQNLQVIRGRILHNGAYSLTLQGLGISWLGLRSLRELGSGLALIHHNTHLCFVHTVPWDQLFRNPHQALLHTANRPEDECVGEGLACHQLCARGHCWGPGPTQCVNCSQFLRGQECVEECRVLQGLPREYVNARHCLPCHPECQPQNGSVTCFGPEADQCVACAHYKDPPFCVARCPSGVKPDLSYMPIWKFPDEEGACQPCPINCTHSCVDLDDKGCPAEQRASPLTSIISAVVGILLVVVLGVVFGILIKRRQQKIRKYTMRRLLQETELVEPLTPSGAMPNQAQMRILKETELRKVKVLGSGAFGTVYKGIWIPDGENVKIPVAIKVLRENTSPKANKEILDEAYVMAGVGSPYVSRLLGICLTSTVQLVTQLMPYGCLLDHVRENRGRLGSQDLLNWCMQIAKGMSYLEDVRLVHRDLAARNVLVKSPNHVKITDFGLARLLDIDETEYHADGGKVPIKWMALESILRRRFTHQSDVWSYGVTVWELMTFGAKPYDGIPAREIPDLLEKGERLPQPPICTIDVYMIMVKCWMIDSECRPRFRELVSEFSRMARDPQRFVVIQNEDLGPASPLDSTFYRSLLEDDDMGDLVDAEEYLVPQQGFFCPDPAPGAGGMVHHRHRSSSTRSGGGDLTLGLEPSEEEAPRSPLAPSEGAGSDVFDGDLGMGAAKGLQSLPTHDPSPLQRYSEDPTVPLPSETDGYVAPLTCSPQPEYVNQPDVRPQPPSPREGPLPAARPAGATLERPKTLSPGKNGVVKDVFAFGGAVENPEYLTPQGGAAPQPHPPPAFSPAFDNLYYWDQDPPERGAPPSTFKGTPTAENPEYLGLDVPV
Sequence of Epidermal growth factor receptor (Homo sapiens, UniProt P00533) (P00533 whole entry, the tested form may be a part): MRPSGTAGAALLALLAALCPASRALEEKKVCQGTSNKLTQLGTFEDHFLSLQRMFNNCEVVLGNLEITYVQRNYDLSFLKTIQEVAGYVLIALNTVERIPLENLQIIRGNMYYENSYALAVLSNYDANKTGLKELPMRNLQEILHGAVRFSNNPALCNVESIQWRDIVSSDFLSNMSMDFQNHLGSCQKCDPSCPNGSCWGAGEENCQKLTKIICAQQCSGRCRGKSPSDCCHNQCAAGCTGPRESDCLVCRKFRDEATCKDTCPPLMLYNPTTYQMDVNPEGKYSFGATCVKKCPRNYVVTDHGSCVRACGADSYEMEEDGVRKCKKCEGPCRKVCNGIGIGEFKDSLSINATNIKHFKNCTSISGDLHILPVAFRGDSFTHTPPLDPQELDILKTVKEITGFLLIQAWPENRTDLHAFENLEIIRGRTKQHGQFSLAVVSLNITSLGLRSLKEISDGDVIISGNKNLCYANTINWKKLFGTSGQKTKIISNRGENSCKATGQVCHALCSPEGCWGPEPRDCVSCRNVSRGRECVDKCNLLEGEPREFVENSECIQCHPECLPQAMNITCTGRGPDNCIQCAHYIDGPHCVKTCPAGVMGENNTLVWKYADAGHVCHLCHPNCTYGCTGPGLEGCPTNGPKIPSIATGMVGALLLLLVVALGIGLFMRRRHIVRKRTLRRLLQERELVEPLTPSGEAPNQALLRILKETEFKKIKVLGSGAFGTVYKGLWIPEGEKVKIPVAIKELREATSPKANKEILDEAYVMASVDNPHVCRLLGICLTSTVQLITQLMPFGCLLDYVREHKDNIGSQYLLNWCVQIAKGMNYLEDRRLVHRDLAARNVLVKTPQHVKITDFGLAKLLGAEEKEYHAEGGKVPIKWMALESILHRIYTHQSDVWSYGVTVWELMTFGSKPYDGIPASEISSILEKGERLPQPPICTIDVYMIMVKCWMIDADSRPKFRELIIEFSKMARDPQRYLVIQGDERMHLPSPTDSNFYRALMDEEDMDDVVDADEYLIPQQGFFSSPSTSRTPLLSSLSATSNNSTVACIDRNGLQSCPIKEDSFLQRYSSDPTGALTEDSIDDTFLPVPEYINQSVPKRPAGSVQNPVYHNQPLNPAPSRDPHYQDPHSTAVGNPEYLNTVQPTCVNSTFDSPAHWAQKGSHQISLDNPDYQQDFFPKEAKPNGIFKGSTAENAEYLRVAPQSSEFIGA
Sequence of Serine/threonine-protein kinase AKT (Homo sapiens) (P31749 whole entry, looked up): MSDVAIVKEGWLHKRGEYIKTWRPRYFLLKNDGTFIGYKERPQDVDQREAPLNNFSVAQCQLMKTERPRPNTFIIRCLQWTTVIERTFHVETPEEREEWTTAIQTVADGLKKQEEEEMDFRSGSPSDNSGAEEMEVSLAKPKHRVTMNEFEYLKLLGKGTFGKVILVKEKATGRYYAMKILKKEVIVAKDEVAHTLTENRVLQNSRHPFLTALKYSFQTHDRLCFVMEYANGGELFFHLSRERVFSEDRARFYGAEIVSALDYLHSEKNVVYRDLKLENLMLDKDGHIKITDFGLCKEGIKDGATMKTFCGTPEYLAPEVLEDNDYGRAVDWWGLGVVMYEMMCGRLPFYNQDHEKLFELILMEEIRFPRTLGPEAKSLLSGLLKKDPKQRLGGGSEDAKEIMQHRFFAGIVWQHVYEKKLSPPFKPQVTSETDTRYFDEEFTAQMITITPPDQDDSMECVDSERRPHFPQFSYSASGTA
Sequence of Serine/threonine-protein kinase AKT (Homo sapiens) (P31751 whole entry, looked up): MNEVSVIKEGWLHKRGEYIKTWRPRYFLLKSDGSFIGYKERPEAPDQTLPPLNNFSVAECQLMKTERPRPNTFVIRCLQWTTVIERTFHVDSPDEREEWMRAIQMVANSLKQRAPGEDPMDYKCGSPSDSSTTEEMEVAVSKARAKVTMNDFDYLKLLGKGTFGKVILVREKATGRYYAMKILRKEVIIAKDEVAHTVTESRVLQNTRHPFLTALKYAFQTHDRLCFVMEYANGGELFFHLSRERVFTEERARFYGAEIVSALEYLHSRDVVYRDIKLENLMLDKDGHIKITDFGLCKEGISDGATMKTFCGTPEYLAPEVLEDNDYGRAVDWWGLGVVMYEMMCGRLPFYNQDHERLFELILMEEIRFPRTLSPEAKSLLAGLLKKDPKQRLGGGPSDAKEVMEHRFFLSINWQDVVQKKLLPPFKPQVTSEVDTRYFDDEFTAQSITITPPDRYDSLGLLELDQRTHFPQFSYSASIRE
Sequence of Serine/threonine-protein kinase AKT (Homo sapiens) (Q9Y243 whole entry, looked up): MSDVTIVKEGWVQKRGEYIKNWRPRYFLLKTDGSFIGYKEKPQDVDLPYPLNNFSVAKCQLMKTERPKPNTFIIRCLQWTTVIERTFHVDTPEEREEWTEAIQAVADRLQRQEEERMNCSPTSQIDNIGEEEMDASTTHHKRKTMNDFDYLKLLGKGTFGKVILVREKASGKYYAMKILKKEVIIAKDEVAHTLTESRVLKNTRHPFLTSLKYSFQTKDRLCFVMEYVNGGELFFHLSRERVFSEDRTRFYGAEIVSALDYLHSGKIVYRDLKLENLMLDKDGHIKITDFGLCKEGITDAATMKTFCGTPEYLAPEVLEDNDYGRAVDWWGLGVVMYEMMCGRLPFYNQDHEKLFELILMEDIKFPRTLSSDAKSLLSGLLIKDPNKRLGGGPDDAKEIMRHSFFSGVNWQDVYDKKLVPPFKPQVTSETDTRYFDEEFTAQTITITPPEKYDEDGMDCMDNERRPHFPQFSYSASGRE

For the molecule `C=CC(=O)Nc1cc(-c2c[nH]c3ncnc(Nc4ccc(OCc5ccccn5)c(Cl)c4)c23)ccc1OCCN(C)C`, the IC50 in [1] stood at 0.09 nM; in data set [5], 164 nM; in [13], 0.1 nM; in data set [15], 15 nM; in data set [16], 2 nM; in data set [18] it was 120 nM. For the same molecule, the Papp B→A at 2 h, 5 µM in [2] is 23.9 ×10⁻⁶ cm/s. For the same molecule, the microsomal CLint at 1 µM in [3] came out at 866 µL/min/mg; in [14] it was 64.2 µL/min/mg. Besides, the Papp A→B at 2 h, 5 µM in data set [4] was 2.1 ×10⁻⁶ cm/s. In [6], this molecule yielded a Ki of 49 nM. For the same molecule, in data set [7], the efflux ratio at 2 h, 5 µM amounted to 11.4. Also, the solubility kinetic at 1.5 h, 500 µM in data set [8] worked out at 60.6 µM (≈ 35.4 µg/mL). The Kinact in data set [9] worked out at 0.212 min⁻¹. The figures for the remaining at 1 h, 5 µM in [10] and in data set [11] were 74.4% and 0.8%, respectively. The inhibition result in data set [12] and in data set [17] was “Active” in each case. Also, in [19], the solubility kinetic at 2 h is 100 µM (≈ 58.4 µg/mL).
Consider `C=CC(=O)Nc1cccc(-c2c[nH]c3ncnc(Nc4ccc(CN5C(=O)c6ccccc6C5=O)cc4)c23)c1`, for which the inhibition result in data set [20], in data set [21], in [22], in [23] and in data set [24] was “Dose-dependent effect” each time. The IC50 in [1] came to 0.4 nM; in data set [5], 419 nM; in data set [13], 0.2 nM; in [15] it was 11 nM; in data set [16], 33 nM; in data set [18], 381 nM. Also, in data set [2], the Papp B→A at 2 h, 5 µM is 0.1 ×10⁻⁶ cm/s. Also, the microsomal CLint at 1 µM turned out to be 770 µL/min/mg in data set [3] and 96.3 µL/min/mg in data set [14]. For the same molecule, the Papp A→B at 2 h, 5 µM in data set [4] amounted to 0.5 ×10⁻⁶ cm/s. In data set [6], this molecule had a Ki of 143 nM. Moreover, the efflux ratio at 2 h, 5 µM in data set [7] was found to be 0.2. Also, the solubility kinetic at 1.5 h, 500 µM in [8] was 8.3 µM (≈ 4.27 µg/mL). For the same molecule, in data set [9], the Kinact was 0.132 min⁻¹. Also, the remaining at 1 h, 5 µM in data set [10] was determined as 78.1%; in data set [11], 81.3%. Besides, the solubility kinetic at 2 h in data set [19] is 30 µM (≈ 15.4 µg/mL).
Take `C=CC(=O)Nc1cccc(-c2c[nH]c3ncnc(Nc4ccc(OCc5ccccn5)c(Cl)c4)c23)c1`: the inhibition result in data set [20], in [21], in data set [22], in [23] and in data set [24] was “Dose-dependent effect” each time. Moreover, the IC50 was found to be 0.08 nM in data set [1]; 161 nM in data set [5]; 0.1 nM in data set [13]; 11 nM in data set [15]; 3.9 nM in data set [16]; 83 nM in data set [18]. For the same molecule, in data set [2], the Papp B→A at 2 h, 5 µM is 0.6 ×10⁻⁶ cm/s. For the same molecule, the Papp A→B at 2 h, 5 µM in data set [4] is 1.9 ×10⁻⁶ cm/s. Further, the microsomal CLint at 3 µM worked out at 125 µL/min/mg in [25] and 27.7 µL/min/mg in data set [26]. Besides, the affinity in [6] corresponds to a Ki of 54 nM. Moreover, the efflux ratio at 2 h, 5 µM in [7] turned out to be 0.3. Further, the Kinact in data set [9] is 0.136 min⁻¹. Moreover, the remaining at 1 h, 5 µM is 79.8% in [10] and 49% in data set [11]. The molecule also returned a solubility kinetic at 2 h in data set [19] of 30 µM (≈ 14.9 µg/mL).
Consider `C=CC(=O)Nc1cc(-c2c[nH]c3ncnc(Nc4ccc5c(cnn5Cc5ccccc5)c4)c23)ccc1OCCO`, for which the half-inhibitory concentration (IC50) in [1] was found to be 0.07 nM; in data set [5] it was 508 nM; in data set [13], 0.1 nM; in [15], 14 nM; in data set [16] it was 6 nM; in data set [18], 159 nM. Besides, the Papp B→A at 2 h, 5 µM in data set [2] turned out to be 5.2 ×10⁻⁶ cm/s. The microsomal CLint at 1 µM in data set [3] is 603 µL/min/mg; in [14], 66 µL/min/mg. Further, in data set [4], the Papp A→B at 2 h, 5 µM came to 1.2 ×10⁻⁶ cm/s. The affinity in data set [6] corresponds to a Ki of 67 nM. Besides, in [7], the efflux ratio at 2 h, 5 µM worked out at 4.5. In addition, the solubility kinetic at 1.5 h, 500 µM in data set [8] is 16.8 µM (≈ 9.17 µg/mL). Besides, the Kinact in [9] was 0.138 min⁻¹. The remaining at 1 h, 5 µM in [10] came to 90.9%; in data set [11], 88.4%. Moreover, the inhibition entry in data set [12] and in [17] was “Active” in each case. The molecule also came in with a solubility kinetic at 2 h in data set [19] of 30 µM (≈ 16.4 µg/mL).
Consider `CCOc1cc2ncc(C#N)c(Nc3ccc(OCc4ccccn4)c(Cl)c3)c2cc1NC(=O)/C=C/CN(C)C` [NERATINIB], for which the Papp B→A at 2 h, 5 µM in [2] turned out to be 0.4 ×10⁻⁶ cm/s. In addition, the Papp A→B at 2 h, 5 µM in data set [4] came out at 0.09 ×10⁻⁶ cm/s. Further, the values for the microsomal CLint at 3 µM in data set [25] and in [26] were 126 µL/min/mg and 42 µL/min/mg, respectively. The IC50 in data set [5] is 148 nM; in [18], < 14 nM. Also, the affinity in [6], expressed as Ki, was 6.3 nM. The solubility kinetic at 1.5 h, 500 µM in data set [8] worked out at 1.2 µM (≈ 0.668 µg/mL). Further, the remaining at 1 h, 5 µM in [10] was found to be 80.7%; in data set [11], 97.4%. The solubility kinetic at 2 h in [19] was > 10 µM.

As usually defined, the IC50 is the midpoint of a concentration-inhibition curve. Broadly, the Ki is a dissociation constant, usually derived from enzyme kinetics or from competition with a known ligand. Read a low Ki as tighter binding. Usually efflux ratio stands for the permeability from basolateral to apical divided by that in the opposite direction, in the common usage.
